Experiments:
[1] = Proton dissociation constants of the coordinated water in [M(arene)(N,N/O)(H2O)]2+/+ complexes (UV-vis titration); conditions: I = 0.10 M (KCl); t = 25.0 °C; UV-vis
Text: The proton dissociation of the aqua ligand in the [M(arene)(N,N/O)(H2O)]^2+/+ complexes (Scheme 2) results in the inert mixed-hydroxido species (general formula: [M(arene)(N,N/O)(OH)]^+/0).

[2] = Computed fractions of mixed-ligand complexes as function of pH from formation constants; assay type: physicochemical; conditions: for fraction of the active form (computed): pH 6.0
Protocol: With the help of these formation constants, the extent of complex formation can be estimated for a chosen monodentate ligand—complex chemical system under the desired conditions (concentration and pH). Figure 6 and Figure S25 show the computed fractions of the formed, mixed-ligand complexes between pH = 5 and 8 and at a 100 μM concentration (metal complex-to-monodentate ligand ratio = 1:1). The fraction at pH = 7.4 and at pH 6.0–6.7 were compared to each other.
As an example, the fractions of [Ru(p-cym)(8HQH−1)(mim)]^+ are shown in Figure S26 with decreasing concentration.
Formation constants shown in Figure 5 and in Table S2 were used for the calculation. Percentages indicate the fraction at pH = 7.4 (blue line) and in the range between pH = 6.0–6.7 (pink rectangle: possible pH of tumor microenvironment during acidosis).

SMILES | pKa of the coordinated water molecule [1] | difference in computed fraction (dissociated) when pH decreases from 7.4 to 6.0 ([2]; 100 μM, ratio 1:1) | fraction of the active form (computed) ([2]; concentration 1 mM) | fraction of the active form (computed) ([2]; concentration two orders of magnitude below 1 mM)
Cc1ccc(C(C)C)cc1.O.[O-]c1cccc2cccnc12.[Ru+2] [[Ru(p-cym)(8HQH-1)(H2O)]+] | 9.31±0.01 | – | – | –
Cc1ccc(C(C)C)cc1.Cn1ccnc1.[O-]c1cccc2cccnc12.[Ru+2] [[Ru(p-cym)(8HQH−1)(mim)]^+] | – | 10% | 5% | 41%
Cc1ccc(C(C)C)cc1.NCCN.O.[Ru+2] [[Ru(p-cym)(en)(H2O)]2+] | 9.03±0.01 | – | – | –
Cc1ccc(C(C)C)cc1.O.[Ru+2].c1cnc2c(c1)ccc1cccnc12 [[Ru(p-cym)(phen)(H2O)]2+] | 8.91±0.01 | – | – | –

— article PMC9964319, “Half-Sandwich Rhodium Complexes with Releasable N-Donor Monodentate Ligands: Solution Chemical Properties and the Possibility for Acidosis Activation” (Pharmaceutics, 2023)
